Experimental data: ChEMBL document CHEMBL4765407, “Design, synthesis and high antitumor potential of new unsymmetrical bisacridine derivatives towards human solid tumors, specifically pancreatic cancers and their unique ability to stabilize DNA G-quadruplexes” (Eur J Med Chem, 2020)

Experiments:
DU-145 [1] = assay: Cytotoxicity against human DU-145 cells assessed as reduction in cell viability measured after 72 hrs by SRB assay; assay type: functional, cell-based; details: DU-145, 72 h
LNCaP = assay: Cytotoxicity against human LNCaP cells assessed as reduction in cell viability measured after 72 hrs by SRB assay; assay type: functional, cell-based
PC-3 = assay: Cytotoxicity against human PC-3 cells assessed as reduction in cell viability measured after 72 hrs by SRB assay; assay type: functional, cell-based; details: PC-3, 72 h
HT-29 [2] = assay: Cytotoxicity against human HT-29 cells assessed as reduction in cell viability measured after 72 hrs by SRB assay; assay type: functional, cell-based; details: HT-29, 72 h
NCI-H460 [3] = assay: Cytotoxicity against human NCI-H460 cells assessed as reduction in cell viability measured after 72 hrs by SRB assay; assay type: functional, cell-based; details: NCI-H460, 72 h
HCT-116 = assay: Cytotoxicity against human HCT-116 cells assessed as reduction in cell viability measured after 72 hrs by SRB assay; assay type: functional, cell-based; details: HCT-116, 72 h
UMUC3 = assay: Cytotoxicity against human UMUC3 cells assessed as reduction in cell viability measured after 72 hrs by SRB assay; assay type: functional, cell-based; details: UMUC3, 72 h
MCF7 = assay: Cytotoxicity against human MCF7 cells assessed as reduction in cell viability measured after 72 hrs by SRB assay; assay type: functional, cell-based; details: MCF7, 72 h
MDA-MB-231 [4] = assay: Cytotoxicity against human MDA-MB-231 cells assessed as reduction in cell viability measured after 72 hrs by SRB assay; assay type: functional, cell-based; details: MDA-MB-231, 72 h
PANC-1 [5] = assay: Cytotoxicity against human PANC-1 cells assessed as reduction in cell viability measured after 72 hrs by SRB assay; assay type: functional, cell-based; details: PANC-1, 72 h
MIA PaCa-2 = assay: Cytotoxicity against human MIA PaCa-2 cells assessed as reduction in cell viability measured after 72 hrs by SRB assay; assay type: functional, cell-based; details: MIA PaCa-2, 72 h
ASPC1 = assay: Cytotoxicity against human ASPC1 cells assessed as reduction in cell viability measured after 72 hrs by SRB assay; assay type: functional, cell-based; details: ASPC1, 72 h
W256 [6] = assay: Antitumour activity against Walker 256 adenocarcinoma cells implanted in Wistar rat assessed as increase in animal survival rate by measuring T/C ratio at 4 mg/kg, ip qd for 3 days administered on day 3,4,5 after tumor cell transplantation; assay type: functional; details: time 3 day
HT-29 [7] = assay: Antitumour activity against human HT-29 cells xenografted in Crl:Nu-Foxnl nu mouse assessed as inhibition of tumour growth at total effective dose of 24 mg/kg, ip measured on day 21; assay type: functional; details: HT-29, ip, 504 h, time 21 day, read-out: TGI
HT-29 [8] = assay: Antitumour activity against human HT-29 cells xenografted in Crl:Nu-Foxnl nu mouse assessed as inhibition of tumour growth at total effective dose of 24 mg/kg, iv measured on day 21; assay type: functional; details: HT-29, iv, 504 h, time 21 day, read-out: TGI
NCI-H460 [9] = assay: Antitumour activity against human NCI-H460 cells xenografted in Crl:Nu-Foxnl nu mouse assessed as inhibition of tumour growth at total effective dose of 30 mg/kg, iv measured on day 14; assay type: functional; details: 336 h, time 14 day, read-out: TGI
Quadruplex DNA [10] = assay: Stabilization of 5'-FAM/3'-TAMRA labeled c-Myc promoter G4 quadruplex DNA FPu18 (unknown origin) assessed as change in melting temperature at 10 microM measured after 15 mins by FRET assay; assay type: nucleic-acid assay
Quadruplex DNA [11] = assay: Stabilization of 5'-FAM/3'-TAMRA labeled telomeric G4 quadruplex DNA F21T (unknown origin) assessed as change in melting temperature at 10 microM measured after 15 mins by FRET assay; assay type: nucleic-acid assay
Quadruplex DNA [12] = assay: Stabilization of 5'-FAM/3'-TAMRA labeled K-Ras G4 quadruplex DNA (unknown origin) assessed as change in melting temperature at 10 microM measured after 15 mins by FRET assay; assay type: nucleic-acid assay
[13] = Stabilization of ds 5'-FAM-d(TATAGCTATA-HEG-TATAGCTATA)-TAMRA-3' (unknown origin) assessed as change in melting temperature at 10 microM measured after 15 mins by FRET assay; details: Homo sapiens
W256 [14] = assay: Antitumour activity against Walker 256 adenocarcinoma cells implanted in Wistar rat assessed as increase in animal survival rate by measuring T/C ratio at 5 mg/kg, ip qd for 3 days administered on day 3,4,5 after tumor cell transplantation; assay type: functional; details: time 3 day
NCI-H460 [15] = assay: Antitumour activity against human NCI-H460 cells xenografted in Crl:Nu-Foxnl nu mouse assessed as inhibition of tumour growth at total effective dose of 60 mg/kg, ip measured on day 14; assay type: functional; details: 336 h, time 14 day, read-out: TGI
BXPC-3 = assay: Cytotoxicity against human BXPC-3 cells assessed as reduction in cell viability measured after 72 hrs by SRB assay; assay type: functional, cell-based; details: BXPC-3, 72 h
W256 [16] = assay: Antitumour activity against Walker 256 adenocarcinoma cells implanted in Wistar rat assessed as increase in animal survival rate by measuring T/C ratio at 2 mg/kg, ip qd for 3 days administered on day 3,4,5 after tumor cell transplantation; assay type: functional; details: time 3 day
DU-145 [17] = assay: Antitumour activity against human DU-145 cells xenografted in Crl:Nu-Foxnl nu mouse assessed as inhibition of tumour growth at total effective dose of 32 mg/kg, iv measured on day 63; assay type: functional; details: DU-145, iv, 1512 h, time 63 day, read-out: TGI
DU-145 [18] = assay: Antitumour activity against human DU-145 cells xenografted in Crl:Nu-Foxnl nu mouse assessed as inhibition of tumour growth at total effective dose of 8 mg/kg, iv measured on day 33; assay type: functional; details: DU-145, iv, 792 h, time 33 day, read-out: TGI
NCI-H460 [19] = assay: Antitumour activity against human NCI-H460 cells xenografted in Crl:Nu-Foxnl nu mouse assessed as inhibition of tumour growth at total effective dose of 10 mg/kg, iv measured on day 21; assay type: functional; details: 504 h, time 21 day, read-out: TGI
MDA-MB-231 [20] = assay: Antitumour activity against human MDA-MB-231 cells xenografted in Crl:Nu-Foxnl nu mouse assessed as inhibition of tumour growth at total effective dose of 8 mg/kg, iv measured on day 50; assay type: functional; details: MDA-MB-231, iv, 1200 h, time 50 day, read-out: TGI
PANC-1 [21] = assay: Antitumour activity against human PANC-1 cells xenografted in Crl:Nu-Foxnl nu mouse assessed as inhibition of tumour growth at total effective dose of 120 mg/kg, iv measured on day 51; assay type: functional; details: PANC-1, iv, 1224 h, time 51 day, read-out: TGI

SMILES	IC50 (DU-145 [1])	IC50 (LNCaP)	IC50 (PC-3)	IC50 (HT-29 [2])	IC50 (NCI-H460 [3])	IC50 (HCT-116)	IC50 (UMUC3)	IC50 (MCF7)	IC50 (MDA-MB-231 [4])	IC50 (PANC-1 [5])	IC50 (MIA PaCa-2)	IC50 (ASPC1)	ΔTm (Quadruplex DNA [10])	ΔTm (Quadruplex DNA [11])	ΔTm (Quadruplex DNA [12])	ΔTm [13]	also measured
O=c1c2cc(O)ccc2[nH]c2c([N+](=O)[O-])ccc(NCCCN3CCN(CCCNc4c5ccccc5nc5cccc([N+](=O)[O-])c45)CC3)c12	20 nM	117 nM	31 nM	38 nM	20 nM	11 nM	33 nM	61 nM	12 nM	43 nM	12 nM	210 nM	32.6 °C	16 °C	26.6 °C	3.3 °C	T/C (W256 [6]): 300%; inhibition in vivo at 24 mg/kg (HT-29 [7]): 25%; inhibition in vivo at 24 mg/kg (HT-29 [8]): 39%; inhibition in vivo at 30 mg/kg (NCI-H460 [9]): 24%
Cc1ccc([N+](=O)[O-])c2c(NCCCNCCCNc3ccc(C)c4[nH]c5ccccc5c(=O)c34)c3ccccc3nc12	129 nM	213 nM	–	1300 nM	67 nM	85 nM	105 nM	–	–	162 nM	–	–	–	–	–	–	T/C (W256 [14]): 1300%; inhibition in vivo at 60 mg/kg (NCI-H460 [15]): 25%
Cc1ccc(NCCCN2CCN(CCCNc3c4ccccc4nc4cccc([N+](=O)[O-])c34)CC2)c2c(=O)c3cc(O)ccc3[nH]c12	20 nM	84 nM	48 nM	23 nM	5 nM	19 nM	9.5 nM	113 nM	28 nM	27 nM	16 nM	79 nM	17.9 °C	7.3 °C	27.6 °C	1.7 °C	IC50 (BXPC-3): 59 nM; T/C (W256 [16]): 250%; inhibition in vivo at 32 mg/kg (DU-145 [17]): 90%; inhibition in vivo at 8 mg/kg (DU-145 [18]): 51%; inhibition in vivo at 10 mg/kg (NCI-H460 [19]): 42%; inhibition in vivo at 8 mg/kg (MDA-MB-231 [20]): 30%; inhibition in vivo at 120 mg/kg (PANC-1 [21]): 75%
